Experimental data: ChEMBL document CHEMBL2163222 (J Med Chem, 2012)
Calls of active or inactive are those of the source. The rule behind the calls is not given here.

Columns and labels:
Mus musculus = species: Mus musculus; assay: Toxicity in mouse assessed as drug tolerance; format: organism-based; settings: in vivo
Malme-3M = assay: Growth inhibition of human MALME-3M cells at 10 uM by NCI-60 cell inhibition assay; format: functional; settings: read-out: GI
NCI-H23 = assay: Growth inhibition of human NCI-H23 cells at 10 uM by NCI-60 cell inhibition assay; format: functional; settings: read-out: GI
K562 = assay: Growth inhibition of human K562 cells at 10 uM by NCI-60 cell inhibition assay; format: functional; settings: read-out: GI
[1] = Growth inhibition of human NCI-ADR-RES cells at 10 uM by NCI-60 cell inhibition assay; format: functional; settings: read-out: GI
HOP-92 = assay: Growth inhibition of human HOP92 cells at 10 uM by NCI-60 cell inhibition assay; format: functional; settings: read-out: GI
[2] = Inhibition of eIF2 protein expression in human Hs683 cells at 0.5 uM after 4 hrs by Western blotting method; format: functional, cell-based; settings: Hs 683
LOX IMVI = assay: Growth inhibition of human LOXIMVI cells at 10 uM by NCI-60 cell inhibition assay; format: functional; settings: read-out: GI
MDA-MB-231 = assay: Growth inhibition of human MDA-MB-231 cells at 10 uM by NCI-60 cell inhibition assay; format: functional; settings: read-out: GI
HL-60(TB) = assay: Growth inhibition of human HL-60(TB) cells at 10 uM by NCI-60 cell inhibition assay; format: functional; settings: read-out: GI
[3] = Inhibition of eIF2 protein expression in human U373 cells at 0.5 uM after 4 hrs by Western blotting method; format: functional, cell-based; settings: U-373MG ATCC
OVCAR-3 = assay: Growth inhibition of human OVCAR3 cells at 10 uM by NCI-60 cell inhibition assay; format: functional; settings: read-out: GI
A549 = assay: Growth inhibition of human A549/ATCC cells at 10 uM by NCI-60 cell inhibition assay; format: functional; settings: read-out: GI
SF-295 = assay: Growth inhibition of human SF295 cells at 10 uM by NCI-60 cell inhibition assay; format: functional; settings: read-out: GI
SK-MEL-28 = assay: Growth inhibition of human SK-MEL-28 cells at 10 uM by NCI-60 cell inhibition assay; format: functional; settings: read-out: GI
Hs 683 = assay: cells; settings: Homo sapiens, Hs 683, 72 h
OVCAR-8 = assay: Growth inhibition of human OVCAR8 cells at 10 uM by NCI-60 cell inhibition assay; format: functional; settings: read-out: GI
SR = assay: Growth inhibition of human SR cells at 10 uM by NCI-60 cell inhibition assay; format: functional; settings: read-out: GI
U-251 = assay: Growth inhibition of human U251 cells at 10 uM by NCI-60 cell inhibition assay; format: functional; settings: read-out: GI
HCC 2998 = assay: Growth inhibition of human HCC2998 cells at 10 uM by NCI-60 cell inhibition assay; format: functional; settings: read-out: GI
[4] = Growth inhibition of human […] cells at 10 uM by NCI-60 cell inhibition assay; format: functional; settings: read-out: GI
786-0 = assay: Growth inhibition of human 786-0 cells at 10 uM by NCI-60 cell inhibition assay; format: functional; settings: read-out: GI
HT-29 = assay: Growth inhibition of human HT-29 cells at 10 uM by NCI-60 cell inhibition assay; format: functional; settings: read-out: GI
BT-549 = assay: Growth inhibition of human BT549 cells at 10 uM by NCI-60 cell inhibition assay; format: functional; settings: read-out: GI
HCT-116 = assay: Growth inhibition of human HCT116 cells at 10 uM by NCI-60 cell inhibition assay; format: functional; settings: read-out: GI
[5] = Growth inhibition of human OE21 cells after 3 days by MTT assay; format: functional, cell-based; settings: OE21, 72 h
NCI-H460 = assay: Growth inhibition of human NCI-H460 cells at 10 uM by NCI-60 cell inhibition assay; format: functional; settings: read-out: GI
PC-3 = assay: Growth inhibition of human PC3 cells at 10 uM by NCI-60 cell inhibition assay; format: functional; settings: read-out: GI
EKVX = assay: Growth inhibition of human EKVX cells at 10 uM by NCI-60 cell inhibition assay; format: functional; settings: read-out: GI
COLO 205 = assay: Growth inhibition of human COLO205 cells at 10 uM by NCI-60 cell inhibition assay; format: functional; settings: read-out: GI
[6] = Solubility of compound at pH 7.4; format: physicochemical; settings: buffer, read-out: solubility
[7] = Stability in cell culture medium without serum assessed as compound recovery after 72 hrs; format: physicochemical; settings: read-out: Stability
UACC-257 = assay: Growth inhibition of human UACC257 cells at 10 uM by NCI-60 cell inhibition assay; format: functional; settings: read-out: GI
UO-31 = assay: Growth inhibition of human UO31 cells at 10 uM by NCI-60 cell inhibition assay; format: functional; settings: read-out: GI
SF-539 = assay: Growth inhibition of human SF539 cells at 10 uM by NCI-60 cell inhibition assay; format: functional; settings: read-out: GI
HCT-15 = assay: Growth inhibition of human HCT15 cells at 10 uM by NCI-60 cell inhibition assay; format: functional; settings: read-out: GI
NCI-H522 = assay: Growth inhibition of human NCI-H522 cells at 10 uM by NCI-60 cell inhibition assay; format: functional; settings: read-out: GI
CCRF-CEM = assay: Growth inhibition of human CCRF-CEM cells at 10 uM by NCI-60 cell inhibition assay; format: functional; settings: read-out: GI
SW-620 = assay: Growth inhibition of human SW620 cells at 10 uM by NCI-60 cell inhibition assay; format: functional; settings: read-out: GI
SK-OV-3 = assay: Growth inhibition of human SKOV3 cells at 10 uM by NCI-60 cell inhibition assay; format: functional; settings: read-out: GI
HOP-62 = assay: Growth inhibition of human HOP62 cells at 10 uM by NCI-60 cell inhibition assay; format: functional; settings: read-out: GI
NCI-H226 = assay: Growth inhibition of human NCI-H226 cells at 10 uM by NCI-60 cell inhibition assay; format: functional; settings: read-out: GI
UACC-62 = assay: Growth inhibition of human UACC62 cells at 10 uM by NCI-60 cell inhibition assay; format: functional; settings: read-out: GI
SK-MEL-2 = assay: Growth inhibition of human SK-MEL-2 cells at 10 uM by NCI-60 cell inhibition assay; format: functional; settings: read-out: GI
SF-268 = assay: Growth inhibition of human SF268 cells at 10 uM by NCI-60 cell inhibition assay; format: functional; settings: read-out: GI
MDA-MB-468 = assay: Growth inhibition of human MDA-MB-468 cells at 10 uM by NCI-60 cell inhibition assay; format: functional; settings: read-out: GI
OVCAR-5 = assay: Growth inhibition of human OVCAR5 cells at 10 uM by NCI-60 cell inhibition assay; format: functional; settings: read-out: GI
MOLT-4 = assay: Growth inhibition of human MOLT4 cells at 10 uM by NCI-60 cell inhibition assay; format: functional; settings: read-out: GI
SNB-75 = assay: Growth inhibition of human SNB75 cells at 10 uM by NCI-60 cell inhibition assay; format: functional; settings: read-out: GI
T98G = assay: cells; settings: Homo sapiens, 72 h
NCI-H322M = assay: Growth inhibition of human NCI-H322M cells at 10 uM by NCI-60 cell inhibition assay; format: functional; settings: read-out: GI
CAKI-1 = assay: Growth inhibition of human Caki1 cells at 10 uM by NCI-60 cell inhibition assay; format: functional; settings: read-out: GI

Cc1c2c(cc[n+]1Cc1ccccc1)c1ccc(OCC3CCCCC3)cc1n2CC1CCCCC1.[Br-]
Activity (Mus musculus): Toxic | inhibition of growth at 10 µM (Malme-3M): -70.3% | inhibition of growth at 10 µM (NCI-H23): -76.7% | inhibition of growth at 10 µM (K562): -45.9% | inhibition of growth at 10 µM [1]: 31.5% | inhibition of growth at 10 µM (HOP-92): -85.6% | inhibition [2]: inactive | inhibition of growth at 10 µM (LOX IMVI): -95.6% | inhibition of growth at 10 µM (MDA-MB-231): -92% | inhibition of growth at 10 µM (HL-60(TB)): -53.4% | inhibition [3]: inactive | inhibition of growth at 10 µM (OVCAR-3): -100% | inhibition of growth at 10 µM (A549): -93.1% | inhibition of growth at 10 µM (SF-295): -92.8% | inhibition of growth at 10 µM (SK-MEL-28): -95.8% | IC50 (Hs 683): 380 nM | inhibition of growth at 10 µM (OVCAR-8): -90.1% | inhibition of growth at 10 µM (SR): -57.6% | inhibition of growth at 10 µM (U-251): -92.5% | inhibition of growth at 10 µM (HCC 2998): -93.2% | inhibition of growth at 10 µM [4]: -45.2% | inhibition of growth at 10 µM (786-0): -91.3% | inhibition of growth at 10 µM (HT-29): -79% | inhibition of growth at 10 µM (BT-549): -91% | inhibition of growth at 10 µM (HCT-116): -98.3% | IC50 [5]: 420 nM | inhibition of growth at 10 µM (NCI-H460): -93.4% | inhibition of growth at 10 µM (PC-3): -75.8% | inhibition of growth at 10 µM (EKVX): -75.5% | inhibition of growth at 10 µM (COLO 205): -95.2% | solubility [6]: 123 µM | remaining at 72 h [7]: > 95% | inhibition of growth at 10 µM (UACC-257): -92.4% | inhibition of growth at 10 µM (UO-31): -93.1% | inhibition of growth at 10 µM (SF-539): -85.2% | inhibition of growth at 10 µM (HCT-15): -81.7% | inhibition of growth at 10 µM (NCI-H522): -84.5% | inhibition of growth at 10 µM (CCRF-CEM): -36.2% | inhibition of growth at 10 µM (SW-620): -96.6% | inhibition of growth at 10 µM (SK-OV-3): -53.4% | inhibition of growth at 10 µM (HOP-62): -95% | inhibition of growth at 10 µM (NCI-H226): -89.1% | inhibition of growth at 10 µM (UACC-62): -94% | inhibition of growth at 10 µM (SK-MEL-2): -86.5% | inhibition of growth at 10 µM (SF-268): -98.7% | inhibition of growth at 10 µM (MDA-MB-468): -86.6% | inhibition of growth at 10 µM (OVCAR-5): -95.5% | inhibition of growth at 10 µM (MOLT-4): -64.5% | inhibition of growth at 10 µM (SNB-75): -87.3% | IC50 (T98G): 160 nM | inhibition of growth at 10 µM (NCI-H322M): -83.2% | inhibition of growth at 10 µM (CAKI-1): -92.5%
